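Results reflect a 48-hour exposure of cells in 96-well plates to compound at five concentrations. GI50 is the concentration that inhibits growth by half.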 Activity calls are given as the source filed them. Cut-off read from the data, not from the text of the source: active = GI50 up to about 1.1 µM and inactive = higher.
Columns and labels:
Test in all cases: growth of human tumour cells (NCI), 48 h
SF-268 = test system: SF-268
SR = test system: SR
ACHN = test system: ACHN
CCRF-CEM = test system: CCRF-CEM
LOX IMVI = test system: LOX IMVI
DU-145 = test system: DU-145
HCT-15 = test system: HCT-15
SW-620 = test system: SW-620
U-251 = test system: U-251
SK-MEL-2 = test system: SK-MEL-2
IGROV-1 = test system: IGROV-1
SF-539 = test system: SF-539
MOLT-4 = test system: MOLT-4
M14 = test system: M14
COLO 205 = test system: COLO 205
EKVX = test system: EKVX
SK-MEL-28 = test system: SK-MEL-28
MCF7 = test system: MCF7
SK-MEL-5 = test system: SK-MEL-5
SNB-75 = test system: SNB-75
HT-29 = test system: HT-29
RXF 393 = test system: RXF 393
MDA-MB-231 = test system: MDA-MB-231
UO-31 = test system: UO-31
BT-549 = test system: BT-549
KM12 = test system: KM12
HCT-116 = test system: HCT-116
K562 = test system: K562
NCI-H226 = test system: NCI-H226
UACC-257 = test system: UACC-257
CAKI-1 = test system: CAKI-1
SF-295 = test system: SF-295
786-0 = test system: 786-0
OVCAR-8 = test system: OVCAR-8
PC-3 = test system: PC-3
NCI-H23 = test system: NCI-H23
HOP-62 = test system: HOP-62
T47D = test system: T47D
HL-60 = test system: HL-60
HCC 2998 = test system: HCC 2998
MDA-MB-435 = test system: MDA-MB-435
UACC-62 = test system: UACC-62
HOP-92 = test system: HOP-92
Hs-578T = test system: Hs-578T
OVCAR-4 = test system: OVCAR-4
NCI/ADR-RES = test system: NCI/ADR-RES
SNB-19 = test system: SNB-19
TK-10 = test system: TK-10
SK-OV-3 = test system: SK-OV-3
NCI-H460 = test system: NCI-H460
RPMI-8226 = test system: RPMI-8226
OVCAR-3 = test system: OVCAR-3
Malme-3M = test system: Malme-3M
NCI-H522 = test system: NCI-H522
A549 = test system: A549
SN12C = test system: SN12C
A498 = test system: A498
OVCAR-5 = test system: OVCAR-5
MDA-N = test system: MDA-N

Measured: GI50

CC(C)[Si]1(C(C)C)OCC2OC3(CO)C(Oc4nc(=O)ccn43)C2O[Si](C(C)C)(C(C)C)O1 (stereo unspecified)
15 µM: HCT-15
inactive: SF-268 17 µM | SR 15.5 µM | ACHN 15.5 µM | CCRF-CEM 5.14 µM | LOX IMVI 15 µM | DU-145 14 µM | SW-620 15.5 µM | U-251 14.2 µM | SK-MEL-2 16.3 µM | IGROV-1 17.3 µM | SF-539 15 µM | MOLT-4 7.55 µM | M14 14.8 µM | COLO 205 9.44 µM | EKVX 17.1 µM | SK-MEL-28 15 µM | MCF7 5.9 µM | SK-MEL-5 13.5 µM | SNB-75 15 µM | HT-29 12.4 µM | RXF 393 5.57 µM | MDA-MB-231 10.2 µM | UO-31 13.9 µM | BT-549 11.6 µM | KM12 13.3 µM | HCT-116 10.9 µM | K562 21 µM | NCI-H226 15.2 µM | UACC-257 14.7 µM | CAKI-1 15.7 µM | SF-295 15 µM | 786-0 14.6 µM | OVCAR-8 14.1 µM | PC-3 5.4 µM | NCI-H23 15.5 µM | HOP-62 15 µM | T47D 9.59 µM | HL-60 6.17 µM | HCC 2998 12.5 µM | MDA-MB-435 15 µM | UACC-62 12.8 µM | HOP-92 16.5 µM | Hs-578T 22.4 µM | OVCAR-4 13.1 µM | NCI/ADR-RES 17.4 µM | SNB-19 15.9 µM | TK-10 16.6 µM | SK-OV-3 20 µM | NCI-H460 15 µM | RPMI-8226 5.81 µM

COC1=C(OC)C(=O)C(Cc2c(Cl)nc3sccn23)=C(C)C1=O
12.6 µM: HCT-15
inactive: SF-268 14.5 µM | SR 5.04 µM | ACHN 12.4 µM | OVCAR-3 12.7 µM | CCRF-CEM 2.02 µM | LOX IMVI 2.96 µM | DU-145 13.5 µM | SW-620 13.7 µM | U-251 12.6 µM | SK-MEL-2 14.1 µM | IGROV-1 15.7 µM | SF-539 12.5 µM | Malme-3M 1.85 µM | MOLT-4 1.85 µM | M14 11.7 µM | COLO 205 15.7 µM | EKVX 7.11 µM | SK-MEL-28 12 µM | MCF7 10.2 µM | SK-MEL-5 4.14 µM | NCI-H522 6.15 µM | HT-29 14.6 µM | RXF 393 16.1 µM | MDA-MB-231 2.38 µM | UO-31 10.6 µM | BT-549 14.4 µM | KM12 10.4 µM | HCT-116 13.6 µM | K562 11 µM | UACC-257 3.32 µM | CAKI-1 14.3 µM | SF-295 12.4 µM | 786-0 16.7 µM | OVCAR-8 13.5 µM | PC-3 14.2 µM | NCI-H23 5.36 µM | HOP-62 16.1 µM | A549 11.6 µM | T47D 2.76 µM | HL-60 2.42 µM | HCC 2998 15.7 µM | MDA-MB-435 8.91 µM | UACC-62 5.2 µM | Hs-578T 11.4 µM | SN12C 13.4 µM | OVCAR-4 2.96 µM | A498 12.8 µM | NCI/ADR-RES 5.89 µM | SNB-19 13.5 µM | TK-10 12.9 µM | SK-OV-3 10.1 µM | OVCAR-5 16.9 µM | NCI-H460 12.8 µM | RPMI-8226 2.34 µM

COc1ccc(CCc2nccn2C)cc1OC
inactive: SF-268 > 100 µM | SR > 100 µM | ACHN > 100 µM | OVCAR-3 > 100 µM | CCRF-CEM > 100 µM | LOX IMVI > 100 µM | SW-620 > 100 µM | SK-MEL-2 > 100 µM | IGROV-1 > 100 µM | SF-539 > 100 µM | Malme-3M > 100 µM | MOLT-4 > 100 µM | M14 > 100 µM | COLO 205 > 100 µM | MDA-N > 100 µM | EKVX > 100 µM | SK-MEL-28 > 100 µM | MCF7 > 100 µM | SK-MEL-5 > 100 µM | HT-29 > 100 µM | UO-31 > 100 µM | BT-549 > 100 µM | HCT-116 > 100 µM | K562 > 100 µM | UACC-257 > 100 µM | CAKI-1 > 100 µM | SF-295 > 100 µM | 786-0 > 100 µM | OVCAR-8 > 100 µM | PC-3 > 100 µM | NCI-H23 > 100 µM | HOP-62 > 100 µM | A549 > 100 µM | HL-60 > 100 µM | HCC 2998 > 100 µM | MDA-MB-435 > 100 µM | UACC-62 > 100 µM | HOP-92 > 100 µM | Hs-578T > 100 µM | SN12C > 100 µM | OVCAR-4 > 100 µM | A498 > 100 µM | NCI/ADR-RES > 100 µM | SNB-19 > 100 µM | TK-10 > 100 µM | SK-OV-3 > 100 µM | OVCAR-5 > 100 µM | NCI-H460 > 100 µM | RPMI-8226 > 100 µM
> 100 µM: HCT-15
